# Data reported in patent publication US20020018748A1, “Method for targeted radiotherapy, pain palliation and imaging of osteoblastic skeletal tumors and composition therefore” (priority 2000, published 2002).
# Several values for one entry are separate records, joined by “and”; a condition that tells them apart may be missing. Equal values may be shown once.
# Legend:
# [1] = system: bone metastases from prostate cancer; experiment: Fractional uptake of a tracer dose of ^85Sr chloride by bone metastases, measured with gamma camera / external counting; type: in vivo, patient
# Method: To calculate the activity (mCi or MBq) of the dose of a carrier-free salt of ^89Sr, preferably chloride, to be administered to palliate painful metastases in a patient, 1 mCi (37 MBq) of ^85Sr chloride with standard specific activity [120 μCi (4.44 MBq)/mg of strontium) is injected into the patient and radioactivity in each metastasis is measured 24 hours after injection. The fractional uptake in each metastasis (relative osteoblastic activity) is calculated by expressing the radioactivity measured in each metastasis as a percent of the administered dose. The sum of the fractional uptake in all metastases is taken as the “metastatic burden” of the patient.
# Measurements of radioactivity can be guided by a recent bone scan with ^99Tc^m-MDP (methylene diphosphonate). These measurements can be made by external point counting with a collimated scintillation detector, or by using a gamma camera. […]
# The gamma camera needs to be equipped with a high-energy collimator. Anterior and posterior images of the lesions are recorded for 15 minutes. […]
# The count rate in each metastasis is calculated by the square root of the product of the count rates in the anterior (A) and posterior (P) images divided by e^−μd: [(cps A) ×(cps P)/(e^−μd)]. The exponential term accounts for the attenuation of the gamma photons by the patient's tissues, where μ is the attenuation coefficient for the gamma rays of ^85Sr, previously measured in a water phantom, and d is the patent thickness measured in cm from x-ray images. The attenuation coefficient needs to be experimentally estimated only once; sensitivity should be measured using an ^85Sr source in a soft-tissue phantom before each imaging session because it varies with time. […]
# The sum of the fractional uptake of ^85Sr chloride by all detectable metastases (“metastatic burden”), is used to define the activity (mCi or MBq) of ^89Sr chloride needed to palliate painful metastases in a patient. […] The fractional uptake measured in these metastases was 3%, 4%, 7%, 10%, and 17% of the dose respectively, with a total “metastatic burden” of 41% (3+4+7+10+17=41) (Table II). […]
# bone metastases = experiment: Theoretical (calculated) distribution of ^89Sr chloride doses in the metastases, from the ^85Sr chloride uptake; type: in vivo, patient; settings: for total amount of strontium incorporated by all metastases: 4 mCi dose
# Method: The fractional uptake (%) of a standard dose ^89Sr chloride for pain palliation in bone metastasis [4 mCi (148 MBq)] with specific activity of 120 μCi (4.44 MBq)/mg of strontium) (B) is calculated from the fractional uptake (%) of 1 mCi of ^85Sr chloride at the same specific activity (A) is illustrated in Table II.
# The fractional uptake (%) of a standard dose of 4.0 mCi (148 MBq) of ^89Sr chloride at the standard specific activity is calculated for each metastasis from the results obtained with ^85Sr chloride. Since the specific activity is the same for both radionuclides, the fractional uptake would be similar if the same physiological conditions are maintained. However, the activity (μCi) and the amount of strontium (mg) incorporated by the metastases would be increased by four times because the activity of the administered dose is increased from 1 mCi to 4 mCi. Theoretically, the fractional uptake of a standard dose of ^89Sr chloride by the metastatic burden would be 41.0% of the dose (1.64 mCi or 60.7 MBq), leaving in blood a remaining fraction of 59% of the dose (2.36 mCi or 87.3 MBq) available for renal excretion and for incorporation by normal bone.
# The absolute amount of strontium (mg) incorporated by each lesion can be calculated by multiplying the activity of the administered dose (mCi or MBq) by the fractional uptake by a given metastasis (% of the dose), and dividing the result by the specific activity of the dose (mCi or MBq/mg of strontium):
# Strontium (mg)=Activity of the dose (mCi) × fractional uptake (%)/specific activity (mCi/mg Sr)
# In Table II it is also appreciated that the fractional uptake is the same for both the activity (μCi) and the absolute amount (mg) of strontium incorporated by the metastases. One mg of strontium corresponds to 3% of the element in the dose. One hundred and twenty μCi of ^89Sr correspond to […] of the activity in the dose. One mCi of strontium chloride with specific activity of 120 μCi/mg of strontium contains 8.333 mg of strontium (Table I), therefore, 4 mCi would contain 33.333 mg of the element. A fractional uptake of 41.0% corresponds to 410 μCi and 3.416 mg when using 1 mCi, and to 1.64 mCi and 13.667 mg when the dose is increased to 4 mCi (Table II). The amount of strontium (mg) taken up by the metastasis per unit time should be constant if the physiological parameters are maintained. Dose calculation may be guided by the relationship of the amount of strontium in carrier-free ^89Sr chloride ([…]) and that which is in an equal amount of its low specific activity counterpart (120 μCi/mg of Sr). The amount of strontium in 4 mCi of low specific activity ^89Sr chloride (120 μCi/mg of Sr), is 33.333 mg, while in carrier-free ^89Sr chloride (17 Ci/mg of Sr) it is reduced to 235.2 ng. The relationship between these quantities would be:
# Theoretical distribution of ^89Sr chloride at different specific activities assuming the same fractional uptake (% of the dose) by the metastases. (A) ^89Sr chloride with low specific activity [120 μCi (4.44 MBq)/mg of strontium]; (B) carrier-free ^89Sr chloride [17 Ci (629 GBq)/mg of strontium] is illustrated in Table III.
# If the “metastatic burden” takes up 41% of a 4mCi dose of the low specific activity ^89Sr chloride (13.664 mg of strontium) (Tables II and III), it is evident that the very small amount of strontium in the carrier-free ^89Sr chloride dose (235.2 ng) would be totally incorporated by the metastases, resulting in a fractional uptake of 100% y the metastatic burden. To correct for this effect, the data in Table IlI should be multiplied by the ratio between 100% uptake and the fractional uptake by the metastatic burden by using 89Sr chloride at the lower specific activity. In this case, the ratio is 100%/41%=2.439. […]
# bone marrow = settings: repeat doses at 3-month intervals; cited from earlier work
# [2] = intravenous single injection; reduced by slow administration over at least two minutes; cited from earlier work
# [3] = system: metastatic lesions in bone; experiment: Absorbed radiation dose estimates by direct measurements of radioactivity in bone metastases; type: in vivo; settings: after 4 mCi (148 MBq), 120 μCi/mg of strontium
# From the text: Absorbed radiation dose estimates for metastatic lesions in bone, obtained by direct measurements of radioactivity in bone metastases after the administration of 4 mCi (148 MBq) of ^89Sr chloride at standard specific activity (120 μCi [4.44 MBq]/mg of strontium), varied from 1.3 to 64 Gy, with a mean of 18±16 Gy. The average total absorbed dose in normal bone sites was 1.1±0.4 Gy. The metastases (target) to normal bone (non-target) dose ratio in individual samples varied from 8±4 to 40±25. If compared to absorbed radiation dose provided by external beam radiotherapy, the absorbed radiation dose delivered by ^89Sr chloride should be large enough to produce a therapeutic effect on the metastases. But absorbed radiation doses delivered by ^89Sr chloride may not be compared with those delivered by external beam radiotherapy because the different dose rates used in each methodology. External beam radiotherapy delivers very high dose rates in a very short time, while ^89Sr chloride provides very low dose rates during a long period. These differences reduce the biological effect of a given dose of ^89Sr because there is repair of sublethal damage.
# metastases = settings: in vivo; cited from earlier work
# painful bone metastases = settings: cited from earlier work
# [4] = carrier-free, 1.64 mCi dose, theoretical
# [5] = standard dose 4 mCi (148 MBq), 120 μCi/mg of strontium, theoretical
# [6] = standard dose 4 mCi, 120 μCi/mg of strontium, theoretical
smiles,measurement,setting,value
"[85Sr+2].[Cl-].[Cl-] [^85Sr Chloride (120 μCi/mg Sr), ^85Sr chloride]",Uptake (%),"[1]; 1 mCi dose, 120 μCi/mg Sr, 24 hours after injection, r8-r12 = metastasis 1-5, r13 = Total, one patient",7.0% and 10.0% and 17.0% and 41.0% and 3.0% and 4.0%
same,fractional uptake measured in these metastases,"[1]; 1 mCi, 120 μCi/mg of strontium, five metastases of one patient with prostate cancer, values respectively",3 % of the dose and 4 % of the dose and 7 % of the dose and 10 % of the dose and 17 % of the dose
same,"total ""metastatic burden"" (sum of fractional uptake in all metastases)","[1]; 1 mCi, 120 μCi/mg of strontium, one patient, five metastases",41%
"[89Sr+2].[Cl-].[Cl-] [^89Sr Chloride (17 Ci/mg Sr), ^89Sr chloride]",fractional uptake by the metastases relative to the same activity at standard specific activity,"bone metastases; 4 mCi (148 MBq) carrier-free vs 120 μCi/mg, ratio 100%/41%",2.439 times
same,activity incorporated by individual metastases,"bone metastases; carrier-free, 1.64 mCi (60.68 MBq) dose, metastasis No. 4, No. 5, No. 1, No. 2, No. 3, respectively, listed as carrier-free ^89Sr chloride",400 μCi and 680 μCi and 120 μCi and 160 μCi and 280 μCi
same,"ratio metastases to normal bone, theoretical values","bone metastases; carrier-free, 1.64 mCi dose, measured ratio multiplied by 2.439",20-98
same,absolute amount of strontium taken up by the metastases,bone metastases; [4],96.422 ng
same,fractional uptake by the metastatic burden,bone metastases; [4],100%
same,fractional uptake by the metastatic burden,"bone metastases; carrier-free, 4 mCi dose (235.2 ng strontium), theoretical",100%
same,activity received by individual metastases,"bone metastases; carrier-free, 4.1 mCi dose, metastasis 1-5 respectively, listed as carrier-free ^89Sr chloride","300 μCi and 400 μCi and 700 μCi and 1,000 μCi and 1,700 μCi"
same,mean absorbed radiation dose to the metastases,"bone metastases; carrier-free, 5.466 mCi (202.2 MBq) dose, calculated",60 Gy
"[89Sr+2].[Cl-].[Cl-] [^89Sr Chloride (120 μCi/mg Sr), ^89Sr chloride]",total amount of strontium incorporated by all metastases,"bone metastases; 120 μCi/mg of strontium, theoretical",13.664 mg
same,total amount of strontium incorporated by all metastases,"bone metastases; 120 μCi/mg of strontium, theoretical, listed as low specific activity ^89Sr chloride",13.664 mg
same,total amount of strontium incorporated by all metastases,"bone metastases; 120 μCi/mg of strontium, theoretical, listed as low specific activity ^89Sr chloride (120 μCi/mg of Sr)",13.667 mg
same,mean fractional uptake,bone metastases; over the five metastases of Table II,8.2%
same,activity taken up by the metastatic burden,bone metastases; [5],1.64 mCi
same,fractional uptake by the metastatic burden,bone metastases; [5],41 % of the dose
same,fractional uptake by the metastatic burden,"bone metastases; standard dose 4 mCi (148 MBq), 120 μCi/mg of strontium, theoretical, listed as low specific activity ^89Sr chloride",41 % of the dose
same,"activity remaining in blood, available for renal excretion and incorporation by normal bone",bone metastases; [6],2.36 mCi
same,"fraction remaining in blood, available for renal excretion and incorporation by normal bone",bone metastases; [6],59 % of the dose
same,toxicity of additional injections,bone marrow,no major toxicity
same,effect during the injection,[2],facial flushing during the injection
same,"absorbed radiation dose for metastatic lesions in bone, mean",[3],18±16 Gy
same,average total absorbed dose in normal bone sites,[3],1.1±0.4 Gy
same,metastases (target) to normal bone (non-target) dose ratio in individual samples,[3],8-40
same,ratio of the uptake by metastases as compared to the uptake in normal bones,metastases,higher than 10 to 1
same,"duration of response, mean",painful bone metastases; after ^89Sr administration,6 months
same,overall effective pain palliation,"painful bone metastases; survey in the United States in 1995, patients treated with bone-seeking radionuclides",81%
same,patients achieving a complete remission of pain,painful bone metastases; survey in the United States in 1995,15%
